Measurements taken from PubChem BioAssay AID2202554 (NIEHS Division of Translational Toxicology (DTT)).
Inconclusive results are not listed. Calls of active or inactive are those of the source. The rule behind the calls is not given here.

tested on: S. typhimurium/E. coli reverse mutation, colony counts; experiment: Bacterial reverse mutation test (aka Ames test) summary data
How it was run: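 S. typhimurium his⁻ strains (TA97–TA1538) and E. coli WP2 uvrA pKM101 trp⁻, dosed over a range with or without rat, hamster or mouse liver S9. Preincubated 20 min at 37° C (or plate incorporation), plated in agar, incubated usually two days. Revertant colonies counted against negative controls.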

Row | SMILES | outcome
1 | COc1ccc([N+](=O)[O-])cc1N=Nc1c(O)c(C(=O)Nc2cccc([N+](=O)[O-])c2)cc2ccccc12 | active; positive
2 | NCCNCCNCCNCCN | active; positive
3 | ClCCCl | active; positive
4 | Nc1ccc(Cl)cc1Cl | active; weakly positive
5 | Nc1ccc2ccccc2c1N=Nc1ccc([N+](=O)[O-])cc1 | active; positive
6 | CCCCCCc1ccc(O)cc1O | inactive; negative
7 | S=P(N1CC1)(N1CC1)N1CC1 | active; positive
8 | BrC(Br)C(Br)Br | inactive; negative
9 | Cc1ccc([N+](=O)[O-])cc1C | active; positive
10 | C=Cc1ccccc1 | inactive; negative
11 | CC(C)CCC[C@@H](C)[C@H]1CC[C@H]2[C@@H]3CC=C4C[C@@H](OC(=O)Cc5ccc(N(CCCl)CCCl)cc5)CC[C@]4(C)[C@H]3CC[C@]12C | inactive; negative
12 | CC=C(Cl)Cl | inactive; negative
13 | CC(C)[N+](=O)[O-] | active; positive
14 | [CH3][Sn]([CH3])([F])[F] | inactive; negative
15 | CN(C)c1ccc(C(=N)c2ccc(N(C)C)cc2)cc1 | active; positive
16 | C[Si]12OCCN(CCO1)CCO2 | inactive; negative
17 | CCCCOCCOCCSC#N | inactive; negative
18 | Nc1ccccc1N | active; positive
19 | CCOP(=O)(OCC)OCC | inactive; negative
20 | CCCCc1ccc(N=Cc2ccc(OC)cc2)cc1 | active; positive
21 | c1ccc2occc2c1 | inactive; negative
22 | CCOC=O | inactive; negative
23 | CCCCCC[C@@H](O)C/C=C\CCCCCCCC(=O)O | inactive; negative
24 | c1ccc(N=NNc2ccccc2)cc1 | active; positive
25 | O=C1Nc2ccc(Cl)cc2[C@@](C#CC2CC2)(C(F)(F)F)O1 | inactive; negative
26 | CCCCCCCCOP(=O)(OCCCCCCCC)OCCCCCCCC | inactive; negative

Row | SMILES | outcome
27 | NO | active; weakly positive
28 | COC(=O)c1ccc(C=O)cc1 | inactive; negative
29 | CC(C)S | inactive; negative
30 | CCS(=O)CCSP(=O)(OC)OC (centres undefined) | active; positive
31 | OC1C2(Cl)C3(Cl)C4(Cl)C(Cl)(Cl)C5(Cl)C3(Cl)C1(Cl)C5(Cl)C24Cl (centres undefined) | inactive; negative
32 | CCCCCCC(=O)OCC | inactive; negative
33 | Cc1ccc(C#N)cc1 | inactive; negative
34 | C/C=C/C=C/C(=O)O | inactive; negative
35 | O=C1N(CO)C(O)C(O)N1CO (centres undefined) | active; positive
36 | CCBr | active; positive
37 | CC(O)COc1ccccc1 (centres undefined) | inactive; negative
38 | O=[N+]([O-])c1ccc2c3c(cccc13)CC2 | active; positive
39 | O=C(O)COc1ccccc1 | inactive; negative
40 | COc1c(Cl)c(Cl)c(Cl)c(Cl)c1Cl | active; positive
41 | FC(F)(F)C(F)(F)I | active; positive
42 | S=C1NC=NC2N=CNC12 (centres undefined) | active; positive
43 | COc1ccc(C2=N[C@H](c3ccc(Cl)cc3)[C@H](c3ccc(Cl)cc3)N2C(=O)N2CCNC(=O)C2)c(OC(C)C)c1 | inactive; negative
44 | CCCC(C)(COC(N)=O)COC(=O)NC(C)C (centres undefined) | inactive; negative
45 | CCCCC(CC)COS(=O)(=O)O (centres undefined) | inactive; negative
46 | CCCCC(CC)COC(=O)C(C#N)=C(c1ccccc1)c1ccccc1 (centres undefined) | inactive; negative
47 | O=C(O)c1ccc(C(=O)O)cc1 | inactive; negative
48 | C=CCc1ccc(OC)cc1 | inactive; negative
49 | CC(=O)c1c(=O)cc(C)oc1=O | inactive; negative
50 | Nc1nc2ccc([N+](=O)[O-])cc2s1 | active; positive
51 | Brc1cc(Br)c(Oc2cc(Br)c(Br)cc2Br)cc1Br | inactive; negative
52 | CCCCCC(=O)O | inactive; negative

Row | SMILES | outcome
53 | CCNc1cc(O)ccc1C | active; positive
54 | O=c1c2ccc3c4c(ccc(c24)c2nc4ccccc4n12)c(=O)n1c2ccccc2nc31 | active; positive
55 | CCN(Cc1ccccc1)c1ccccc1 | inactive; negative
56 | N#CCCO | inactive; negative
57 | Nc1c(N=Nc2ccc([N+](=O)[O-])cc2)c(S(=O)(=O)O)cc2cc(S(=O)(=O)O)c(N=Nc3ccccc3)c(O)c12 | active; positive
58 | Nc1cc(S(=O)(=O)O)cc2cc(S(=O)(=O)O)c(N=Nc3ccc(-c4ccc(N=Nc5c(S(=O)(=O)O)cc6cc(S(=O)(=O)O)cc(N)c6c5O)cc4)cc3)c(O)c12 | inactive; negative
59 | O=CC(Cl)(Cl)Cl | active; weakly positive
60 | CN(C)P(=O)(N(C)C)N(C)C | inactive; negative
61 | CCC=C1OC(=O)c2ccccc21 | active; positive
62 | O=C(O)c1ccc([N+](=O)[O-])cc1 | active; positive
63 | C=CCCCC | inactive; negative
64 | CCCCC=O | inactive; negative
65 | Nc1ccc(Cc2ccc(N)c(Cc3ccc(N)cc3)c2)cc1 | active; positive
66 | Cc1ccc(N=C=O)cc1N=C=O | active; positive
67 | C=C | inactive; negative
68 | CCC(Cl)[N+](=O)[O-] (centres undefined) | active; positive
69 | CCN(N=O)C(N)=O | active; positive
70 | CC(C)OCC1CO1 (centres undefined) | active; positive
71 | c1ccc2c(c1)ccc1cc3c(ccc4ccccc43)cc12 | active; positive
72 | CCCN(CCC)c1c([N+](=O)[O-])cc(C(F)(F)F)cc1[N+](=O)[O-] | active; positive
73 | CCN(CC)CCN1C(=O)CN=C(c2ccccc2F)c2cc(Cl)ccc21 | inactive; negative
74 | O=C(O)/C=C\C(=O)O | inactive; negative
75 | CO/N=C(\C(=O)N[C@@H]1C(=O)N2C(C(=O)O)=C(COC(N)=O)CS[C@H]12)c1ccco1 | inactive; negative
76 | CN(C)c1nc(N(C)C)nc(N(C)C)n1 | inactive; negative
77 | CC(=O)Nc1ccccc1 | inactive; negative
78 | Nc1ccccc1[N+](=O)[O-] | inactive; negative

Row | SMILES | outcome
79 | Nc1cc(Cl)ccc1O | active; weakly positive
80 | ClCC(Br)CBr (centres undefined) | active; positive
81 | O=[N+]([O-])c1ccc(Cl)c(Cl)c1 | active; positive
82 | CN(CCO)CCO | inactive; negative
83 | C=CC1CO1 (centres undefined) | active; positive
84 | OC[C@H]1O[C@@H](Oc2ccc(O)cc2)[C@H](O)[C@@H](O)[C@@H]1O | inactive; negative
85 | O=C(O)C=Cc1ccc(O)c(O)c1 | inactive; negative
86 | CCCCCCCCCCCCCCCCCC(O)=[OH+].O.[Cl][Cr][Cl].[Cl][Cr][Cl] | active; positive
87 | CC=C(C)C#N | inactive; negative
88 | CC(=O)/C=C/c1ccccc1 | active; positive
89 | CCCCCCCC/C=C\CCCCCCCC(=O)O (tested in a mixture with another compound) | inactive; negative
90 | ClC(Cl)Br | inactive; negative
91 | c1ccc2c(c1)Nc1ccccc1S2 | inactive; negative
92 | CC1CC(OC(=O)c2ccccc2O)CC(C)(C)C1 (centres undefined) | inactive; negative
93 | FC(F)(F)c1ccccc1Cl | inactive; negative
94 | C1=CCCC=CCC1.C1=CCCC=CCC1.[Ni] | active; positive
95 | CCC[N+](=O)[O-] | inactive; negative
96 | C=CC(=O)NCNC(=O)C=C | active; positive
97 | OCCOCCO | inactive; negative
98 | NC(=S)NNC(N)=S | inactive; negative
99 | O=[N+]([O-])c1ccccc1O | inactive; negative
100 | C=C(C)OC(C)=O | inactive; negative
101 | CCCC(=O)O | inactive; negative
102 | Cc1cccc(C)c1O | inactive; negative
103 | S=c1[nH][nH]c(=S)s1 | inactive; negative
104 | CC(Cl)Cl | inactive; negative

Row | SMILES | outcome
105 | Oc1ccc(O)cc1 | inactive; negative
106 | CCCCCCCCC=O | inactive; negative
107 | CC(C)[C@]12CC(=O)[C@H](C)[C@H]1C2 | inactive; negative
108 | ClC1=C(Cl)C2(Cl)C3C(Cl)C(Cl)CC3C1(Cl)C2(Cl)Cl (centres undefined) | inactive; negative
109 | C=C(C)C(=O)OCCCC | inactive; negative
110 | NC(=O)NN=Cc1ccc([N+](=O)[O-])o1 | active; positive
111 | CC(=O)OCc1ccccc1 | inactive; negative
112 | OCCN(CCO)CCO | inactive; negative
113 | [O]=[W](=[O])=[O] | inactive; negative
114 | O=C(O)C(F)(F)C(F)(F)C(F)(F)C(F)(F)C(F)(F)C(F)(F)C(F)(F)C(F)(F)F | inactive; negative
115 | CCC(CO)(CO)[N+](=O)[O-] | inactive; negative
116 | O=C1OC2(c3cc(Br)c(O)c(Br)c3Oc3c2cc(Br)c(O)c3Br)c2c(Cl)c(Cl)c(Cl)c(Cl)c21 | active; positive
117 | O=S(=O)(O)c1ccccc1 | inactive; negative
118 | C[CH2][Pb]([CH2]C)([CH2]C)[CH2]C | inactive; negative
119 | CCOC(N)=O | active; positive
120 | C1CCCNCC1 | inactive; negative
121 | CC(C)C#N | inactive; negative
122 | CC(N)=O | inactive; negative
123 | O=C(c1ccccc1)C(O)c1ccccc1 (centres undefined) | active; weakly positive
124 | O=[N+]([O-])c1ccccc1CCO | active; positive
125 | O=c1[nH]c(=O)n(Cl)c(=O)n1Cl | inactive; negative
126 | CCN(CC)C(=S)S[Te](SC(=S)N(CC)CC)(SC(=S)N(CC)CC)SC(=S)N(CC)CC | inactive; negative
127 | [Li+] | inactive; negative
128 | CCCCC(CC)COP(=O)(OCC(CC)CCCC)OCC(CC)CCCC (centres undefined) | inactive; negative
129 | C1CCCCC1 | inactive; negative
